Values quoted from earlier work in patent US8785725B2, “Method for generating resistance against citrus diseases caused by insects, fungi, oomycetes, bacteria or nematodes” (Institute Valenciano de Investigaciones Agrarias, priority 2009, dated 2014).

Q: Which miscibility with alcohol (alcohol) does the source give for C=C(C)C1CC=C(C)CC1 (stereo not drawn) [d-limonene, 1-methyl-4-(1-methylethenyl)cyclohexene] here?
A: miscible with alcohol

Q: And the solubility in water (water)?
A: insoluble in water
